In article PMC11676996, “Inhibitory Effects of Sulfur Derivatives on Leishmania tarentolae Cell Viability and Secreted Acid Phosphatase In Vitro” (Microorganisms, 2024):

Test system: T1, secreted acid phosphatase (SAP)
T1 construct: native enzyme activity in cell-free culture supernatant
Experiment: pNPP phosphatase assay, compound added directly to control cell-free supernatant, dose-dependent
Format: biochemical, Leishmania tarentolae

Q: With `COc1cc(/C=N/NC(=S)SC)cc(OC)c1O` [ZZ1-04] as the compound, how does the IC50 read?
A: 60 to 80 µM
